Where a name gives a salt, the structure may show the parent alone.
The compounds below were run on responses to NMDA in rat cortical slice (assay: Rat cortical slice: antagonism of responses to NMDA). Details: from righthand shift in NMDA concentration-response curve, read-out: apparent equilibrium constant (Kb).
Assay type: cell-based
Method: The effects of compounds of the invention on responses to NMDA were assessed using the rat cortical slice as described by Wong et al., Proc. Natl. Acad. Sci. USA, 1986, 83, 7104. The apparent equilibrium constant (Kb) was calculated from the righthand shift in the NMDA concentration-response curve produced by the compound under test.
With `COc1ccc2c(c1)CC1NC(C)(C2)c2ccccc21` (stereo not drawn) [Example 12, 2-Methoxy-6-methyl-5,6,11,12-tetrahydrodibenzo [a,e]cycloocten-6,11-imine hydrochloride] the Kb was < 2000 nM. In the case of `CC12Cc3ccc(O)cc3CC(N1)c1ccccc12` (stereo not drawn) [Example 13, 2-Hvdroxy-6-methyl-5,6,11,12-tetrahydrodibenzo[a,e]cycloocten-6.11-imine hydrochloride], the Kb is reported as < 2000 nM.

These compounds were tested on tonic seizures induced by N-methyl-DL-aspartic acid (NMDLA) in male Swiss-Webster mice (assay: Antagonism of NMDLA-induced tonic seizures in mice). Details: iv; mouse, i.v. test compound 15 min before s.c. NMDLA 500 mg/kg; observed 30 min; probit analysis.
Assay type: in vivo, mouse (Swiss-Webster)
Method: Compounds of the invention were examined for their ability to antagonise tonic seizures induced by N-methyl-DL-aspartic acid (NMDLA). Groups of 8 male Swiss-Webster mice (25 to 30 g) were injected intravenously with the test compound at various doses, 15 min before s.c. administration of NMDLA (500 mg/kg). […] ED50 values for the antagonism of the NMDLA induced tonic seizures were determined using probit analysis.
In the case of `CC12Cc3ccccc3CC(N1)c1ccccc12` (stereo not drawn) [Example 1, 6-Methyl-5,6,11,12-tetrahydrodibenzo[a,e]cycloocten-6,11-imine Hydrochloride], the ED50 is reported as < 5 mg/kg. `CC12Cc3ccc(Br)cc3CC(N1)c1ccccc12` (stereo not drawn) [Example 3, 2-Bromo-6-methyl-5,6,11,12-tetrahydrodibenzo[a,e]cycloocten-6.11-imine hydrochloride] was tested, and the ED50 was < 5 mg/kg. For `CC12Cc3ccccc3CC(O)(N1)c1ccccc12` (stereo not drawn) [Example 15, 11-Hydroxy-6-methyl-5,6,11,12-tetrahydrodibenzo[a,e]cycloocten-6,11-imine hydrochloride], the ED50 was < 5 mg/kg. In the case of `CC12Cc3ccccc3CC(C)(N1)c1ccccc12` [Example 16, 6,11-Dimethyl-5,6,11,12-tetrahydrodibenzo[a,e]cycloocten-6,11-imine hydrochloride], the ED50 is reported as < 5 mg/kg.

From patent publication US4927819A, “Cyclo-octane neuroprotective agents” (Merck Sharp & Dohme Limited, priority 1987, dated 1990)
